{
  "source": "patent US20240251783A1",
  "about": "“COMPOSITIONS AND METHODS FOR LUNG PRESERVATION” (University Health Network, priority 2021, published 2024)",
  "key": {"[1]": {"tested_on": "human pulmonary microvascular endothelial cells (HPMEC)", "assay": "Cell culture model simulating hypothermic lung preservation and warm reperfusion; MTS cell viability", "assay_type": "cell-based", "conditions": "42 h CIT", "description": "(§1) Human lung epithelial (BEAS-2B) cells or human pulmonary microvascular endothelial cells (HPMEC) were cultured to confluence at 37° C., 5% CO2 in DMEM (Gibco; Waltham MA) with 10% of fetal bovine serum (FBS, Gibco), or in M199 medium (Thermo Scientific, Waltham MA) with 20% of FBS, respectively. After cells reached confluence, medium was replaced with different testing solutions, and cells were switched to a chamber at 4° C. with 50% O2 to simulate hypothermic lung preservation. After different periods of cold ischemic time (CIT), cells were switched back to DMEM+10% FBS or M199+20% FBS at 37° C. with 5% CO2 for 4 h to simulate reperfusion. Cell morphology was recorded with phase contrast microscopy.\n(§2) CellTiter 96® AQueous One Solution Cell Proliferation Assay (MTS) was used to determine effects of different solutions on cell viabilities. Cells were seeded in 96-well plates at 15,000 cells/100 μl/well, and incubated with serum containing culture medium as described above, at 37° C./5% CO2 overnight. After switching to different preservation solutions for various periods of CIT, and followed by 3 h simulated reperfusion, and then 20 μl of CellTiter 96@ AQueousOne Solution (Promega; Madison, WI) was added to each well. After additional 1 h incubation, optical density of each well was measured using a plate reader (Biotek Instrument Inc., Winooski, VT) set to 490 nm."}, "[2]": {"tested_on": "Human lung epithelial (BEAS-2B) cells", "assay": "Cell culture model simulating hypothermic lung preservation and warm reperfusion; MTS cell viability and phase contrast morphology", "assay_type": "cell-based", "conditions": "42 h CIT", "description": "as §1, §2"}},
  "data": [
    {"substance": "dextran 40", "values": [
      {"measurement": "effect of addition of dextran 40 on cell viability", "setting": "[1]; 50 mg/ml added to M199(p)", "result": "further significantly improved cell viability"},
      {"measurement": "effect of addition of dextran 40 on cell viability", "setting": "[1]; 50 mg/ml added to RPMI-1640(p)", "result": "not further enhanced"},
      {"measurement": "effect of addition of dextran 40 on cell viability", "setting": "[2]; 50 mg/ml added to M199(p)", "result": "further significantly improved cell viability"},
      {"measurement": "effect of addition of dextran 40 on cell viability", "setting": "[2]; 50 mg/ml added to RPMI-1640(p)", "result": "not further enhanced"}
    ]}
  ]
}
